Experimental data from patent US8431593B2, “Heteroaryl amide derivatives” (H. Lundbeck A/S, priority 2006, dated 2013).
Where two headings read alike, the source gives them in different places. Each block holds one compound with its values, some of them ahead of it.

Biological target: T1, P2X7 receptor (Homo sapiens, UniProt Q99572)
T1 construct: host or cells: SH-SY5Y
T1 sequence (Q99572 1-595): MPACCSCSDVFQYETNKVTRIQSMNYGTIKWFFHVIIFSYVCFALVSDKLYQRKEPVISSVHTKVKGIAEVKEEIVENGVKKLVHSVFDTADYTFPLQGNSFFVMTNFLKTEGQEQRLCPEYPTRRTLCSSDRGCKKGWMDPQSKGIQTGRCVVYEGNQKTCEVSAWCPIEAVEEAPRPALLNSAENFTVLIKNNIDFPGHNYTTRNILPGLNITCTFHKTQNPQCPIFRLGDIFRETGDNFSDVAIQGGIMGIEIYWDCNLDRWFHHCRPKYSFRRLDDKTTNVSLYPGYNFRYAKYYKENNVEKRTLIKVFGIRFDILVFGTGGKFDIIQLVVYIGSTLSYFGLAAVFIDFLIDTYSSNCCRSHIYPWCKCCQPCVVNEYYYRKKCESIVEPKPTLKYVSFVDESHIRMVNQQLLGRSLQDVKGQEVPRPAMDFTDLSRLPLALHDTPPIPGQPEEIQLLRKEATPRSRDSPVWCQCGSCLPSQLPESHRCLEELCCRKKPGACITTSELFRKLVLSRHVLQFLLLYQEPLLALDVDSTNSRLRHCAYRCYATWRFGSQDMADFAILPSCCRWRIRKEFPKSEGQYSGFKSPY
Assay: P2X7 calcium mobilization assay, high throughput, antagonist activity (Example 4A)
Type: cell-based
Conditions: read-out: IC50
Summary of the method: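 100,000 cells/well, plated day -1. Dye 1 h → rinse → compound 1 h, RT → FLIPR^TETRA Ca2+ mobilization. Max RFU minus mean negative control (no agonist); mean agonist-well max as positive control.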

[1] = fluorescence response of cells exposed to 80 μM 2′(3′)-O-(4-benzoyl-benzoyl)adenosine 5′-triphosphate, Example 4A
[2] = 50% decrease in the fluorescence response of cells exposed to 80 μM of 2′(3′)-O-(4-benzoyl-benzoyl)adenosine 5′-triphosphate, determined as in Example 4A
[3] = SH-SY5Y cells, 50% decrease in fluorescence response to 80 μM BzATP
[4] = 50% decrease in the fluorescence response of cells exposed to 80 μM 2′(3′)-O-(4-benzoyl-benzoyl)adenosine 5′-triphosphate, Example 4A
[5] = 50% decrease in the fluorescence response of cells exposed to 80 μM of 2′(3′)-O-(4-benzoyl-benzoyl)adenosine 5′-triphosphate, Example 4A

Structure (SMILES): N[C@@H]1CCCN(C(=O)Cc2cn3c(C(=O)NCC45CC6CC(CC(C6)C4)C5)cccc3n2)C1 [Compound 295, N-(adamantan-1-ylmethyl)-2-{2-[(3R)-3-aminopiperidin-1-yl]-2-oxoethyl}imidazo[1,2-a]pyridine-5-carboxamide]
- IC50 [1]: < 2000 nM

Structure (SMILES): CCCCCN(CCO)C(=O)c1cn2c(NC(=O)CC34CC5CC(CC(C5)C3)C4)cccc2n1 [Compound 410, 5-[(adamantan-1-ylacetyl)amino]-N-(2-hydroxyethyl)-N-pentylimidazo[1,2-a]pyridine-2-carboxamide]
- IC50 [1]: < 2000 nM

Structure (SMILES): CC1(C)CCCN(C(=O)Cc2cn3c(C(=O)NCC45CC6CC(CC(C6)C4)C5)cccc3n2)C1 [Compound 185, N-(adamantan-1-ylmethyl)-2-[2-(3,3-dimethylpiperidin-1-yl)-2-oxoethyl]imidazo[1,2-a]pyridine-5-carboxamide]
- IC50 [3]: < 2000 nM

Structure (SMILES): COC1CCN(C(=O)c2cn3c(C(=O)NC[C@@H]4CC[C@H]5C[C@@H]4C5(C)C)cccc3n2)CC1 [Compound 493, N-{[(1S,2R,5S)-6,6-dimethylbicyclo [3.1.1]hept-2-yl]methyl}-2-[(4-methoxy-piperidin-1-yl)carbonyl] imidazo[1,2-a] pyridine-5-carboxamide]
- IC50 [4]: < 2000 nM

Structure (SMILES): O=C(NCC12CC3CC(CC(C3)C1)C2)c1cccc2nc(CC(=O)N3CCOCC3)cn12 [Compound 182, N-(adamantan-1-ylmethyl)-2-(2-morpholin-4-yl-2-oxoethyl)imidazo[1,2-a]pyridine-5-carboxamide]
- IC50 [3]: < 2000 nM

Structure (SMILES): O=C(NCC12CC3CC(CC(C3)C1)C2)c1cccc2nc(Cn3cncc3CO)cn12 [Compound 200, N-(adamantan-1-ylmethyl)-2-{[5-(hydroxymethyl)-1H-imidazol-1-yl]methyl}imidazo[1,2-a]pyridine-5-carboxamide]
- IC50 [3]: < 2000 nM

Structure (SMILES): O=C(CC12CC3CC(CC(C3)C1)C2)Nc1cccc2nc(C(=O)N3CCCC3)cn12 [Compound 358, 2-adamantan-1-yl-N-[2-(pyrrolidin-1-ylcarbonyl)imidazo [1,2-a]pyridin-5-yl]acetamide]
- IC50 [1]: < 2000 nM

Structure (SMILES): NC1CCN(Cc2cn3c(C(=O)NCC45CC6CC(CC(C6)C4)C5)cccc3n2)CC1 [Compound 120, N-(adamantan-1-ylmethyl)-2-[(4-aminopiperidin-1-yl)methyl]imidazo[1,2-a]pyridine-5-carboxamide]
- IC50 [3]: < 2000 nM

Structure (SMILES): O=C(NCC12CC3CC(CC(C3)C1)C2)c1cccc2nc(CC(=O)N3CCN(C4CCC4)CC3)cn12 [Compound 179, N-(adamantan-1-ylmethyl)-2-[2-(4-cyclobutylpiperazin-1-yl)-2-oxoethyl]imidazo[1,2-a]pyridine-5-carboxamide]
- IC50 [3]: < 2000 nM

Structure (SMILES): CN(C)CCN(C(=O)c1cn2c(C(=O)NC[C@@H]3CC[C@H]4C[C@@H]3C4(C)C)cccc2n1)C1CCNCC1(C)C (stereo partly drawn) [Compound 319, 2-N-[2-(dimethylamino)ethyl]-5-N-{[(1S,2R,5S)-6,6-dimethylbicyclo[3.1.1]hept-2-yl]methyl}-2-N-(3,3-dimethylpiperidin-4-yl)imidazo[1,2-a]pyridine-2,5-dicarboxamide]
- IC50 [1]: < 2000 nM

Structure (SMILES): O=C(NCC12CC3CC(CC(C3)C1)C2)c1cccc2nc(CC(=O)N3CCSCC3)cn12 [Compound 536, N-(adamantan-1-ylmethyl)-2-(2-oxo-2-thiomorpholin-4-ylethyl)imidazo[1,2-a]pyridine-5-carboxamide]
- IC50 [4]: < 2000 nM

Structure (SMILES): CC1(C)[C@H]2CC[C@@H](CNC(=O)c3cccc4nc(C(=O)NC5CCNC5)cn34)[C@@H]1C2 (stereo partly drawn) [Compound 333, 5-N-{[(1S,2R,5S)-6,6-dimethylbicyclo[3.1.1]hept-2-yl]methyl}-2-N-pyrrolidin-3-ylimidazo[1,2-a]pyridine-2,5-dicarboxamide]
- IC50 [1]: < 2000 nM

Structure (SMILES): Nc1nnn(Cc2cn3c(C(=O)NCC45CC6CC(CC(C6)C4)C5)cccc3n2)n1 [Compound 206, N-(adamantan-1-ylmethyl)-2-[(5-amino-2H-tetrazol-2-yl)methyl]imidazo[1,2-a]pyridine-5-carboxamide]
- IC50 [3]: < 2000 nM

Structure (SMILES): CC(C)(C)C(O)CNC(=O)c1cn2c(C(=O)NC[C@@H]3CC[C@H]4C[C@@H]3C4(C)C)cccc2n1 (stereo partly drawn) [Compound 528, 5-N-{[(1S,2R,5S)-6,6-dimethylbicyclo[3.1.1]hept-2-yl]methyl}-2-N-(2-hydroxy-3,3-dimethylbutyl)imidazo [1,2-a]pyridine-2,5-dicarboxamide]
- IC50 [4]: < 2000 nM

Structure (SMILES): O=C(NCC12CC3CC(CC(C3)C1)C2)c1cccc2nc(CSc3nnc[nH]3)cn12 [Compound 293, N-(adamantan-1-ylmethyl)-2-[(4H-1,2,4-triazol-3-ylthio)methyl]imidazo [1,2-a]pyridine-5-carboxamide]
- IC50 [1]: < 2000 nM

Structure (SMILES): CC(=O)N1CCN(C(=O)Cc2cn3c(C(=O)NCC45CC6CC(CC(C6)C4)C5)cccc3n2)CC1 [Compound 166, 2-[2-(4-acetylpiperazin-1-yl)-2-oxoethyl]-N-(adamantan-1-ylmethyl)imidazo[1,2-a]pyridine-5-carboxamide]
- IC50 [3]: < 2000 nM

Results, then the compound that gave them:

- IC50 [2]: < 2000 nM
Structure (SMILES): CC(C)CC(CNC(=O)c1cccc2nc(CN3CC[C@@H](O)C3)cn12)c1ccc(Cl)cc1 (stereo partly drawn) [Compound 942, N-[2-(4-chlorophenyl)-4-methylpentyl]-2-{[(3R)-3-hydroxypyrrolidin-1-yl]methyl} imidazo[1,2-a]pyridine-5-carboxamide]

- IC50 [4]: < 2000 nM
Structure (SMILES): C[C@@H]1CNCCN1C(=O)Cc1cn2c(C(=O)NC[C@@H]3CC[C@@H]4C[C@H]3C4(C)C)cccc2n1 [Compound 561, N-{[(1R,2R,5R)-6,6-dimethylbicyclo[3.1.1]hept-2-yl]methyl}-2-{2-[(2R)-2-methylpiperazin-1-yl]-2-oxoethyl}imidazo[1,2-a]pyridine-5-carboxamide]

- IC50 [4]: < 2000 nM
Structure (SMILES): CCN(Cc1cn2c(C(=O)NCC34CC5CC(CC(C5)C3)C4)cccc2n1)C(=O)c1nnc[nH]1 [Compound 552, N-(adamantan-1-ylmethyl)-2-{[ethyl(4H-1,2,4-triazol-3-ylcarbonyl)amino]methyl}imidazo[1,2-a]pyridine-5-carboxamide]

- IC50 [4]: < 2000 nM
Structure (SMILES): CC1CNCCN1C(=O)c1cn2c(C(=O)NCC34CC5CC(CC(C5)C3)C4)cccc2n1 (stereo not shown) [Compound 602, N-(adamantan-1-ylmethyl)-2-[(2-methylpiperazin-1-yl)carbonyl]imidazo[1,2-a]pyridine-5-carboxamide]

- IC50 [5]: < 2000 nM
Structure (SMILES): O=C(NCC12CC3CC(CC(C3)C1)C2)c1cccc2nc(CC3(C(=O)O)SCCS3)cn12 [Compound 733, 2-({5-[(adamantan-1-ylmethyl)carbamoyl]imidazo[1,2-a]pyridin-2-yl}methyl)-1,3-dithiolane-2-carboxylic acid]

- IC50 [2]: < 2000 nM
Structure (SMILES): CCCC(CNC(=O)c1cccc2nc(CC(=O)N[C@@H]3CCNC3)cn12)c1ccc(Cl)cc1 (stereo partly drawn) [Compound 951, N-[2-(4-chlorophenyl)pentyl]-2-{2-oxo-2-[(3R)-pyrrolidin-3-ylamino]ethyl} imidazo[1,2-a] pyridine-5-carboxamide]

- IC50 [5]: < 2000 nM
Structure (SMILES): O=C(NCC12CC3CC(CC(C3)C1)C2)c1cccc2nc(C(=O)N3CCN(C4CCOCC4)CC3)cn12 [Compound 721, N-(adamantan-1-ylmethyl)-2-{[4-(tetrahydro-2H-pyran-4-yl)piperazin-1-yl]carbonyl}imidazo[1,2-a]pyridine-5-carboxamide]

- IC50 [5]: < 2000 nM
Structure (SMILES): CC(C)N[C@@H]1CCCN(C(=O)Cc2cn3c(C(=O)NCC45CC6CC(CC(C6)C4)C5)cccc3n2)C1 [Compound 742, N-(adamantan-1-ylmethyl)-2-{2-[(3R)-3-(isopropylamino)piperidin-1-yl]-2-oxoethyl}imidazo[1,2-a]pyridine-5-carboxamide]

- IC50 [2]: < 2000 nM
Structure (SMILES): CCOC(=O)C1(c2cn3c(C(=O)NCC45CC6CC(CC(C6)C4)C5)cccc3n2)CCOCC1 [Compound 944, ethyl 4-{5-[(adamantan-1-ylmethyl)carbamoyl]imidazo[1,2-a]pyridin-2-yl}tetrahydro-2H-pyran-4-carboxylate]

- IC50 [5]: < 2000 nM
Structure (SMILES): O=C(NCC12CC3CC(CC(C3)C1)C2)c1cccc2nc(Cn3nnc(-c4ccccn4)n3)cn12 [Compound 816, N-(adamantan-1-ylmethyl)-2-[(5-pyridin-2-yl-2H-tetrazol-2-yl)methyl]imidazo [1,2-a]pyridine-5-carboxamide]

- IC50 [2]: < 2000 nM
Structure (SMILES): O=C(NCC1(c2ccc(Cl)cc2)CCCCC1)c1cccc2nc(CSc3nnn[nH]3)cn12 [Compound 915, N-{[1-(4-chlorophenyl)cyclohexyl]methyl}-2-[(1H-tetrazol-5-ylthio)methyl] imidazo [1,2-a]pyridine-5-carboxamide]

- IC50 [2]: < 2000 nM
Structure (SMILES): N[C@@H]1CCN(Cc2cn3c(C(=O)NCC4(c5ccc(C(F)(F)F)cc5)CCCCC4)cccc3n2)C1 [Compound 822, 2-{[(3R)-3-aminopyrrolidin-1-yl]methyl}-N-({1-[4-(trifluoromethyl)phenyl]cyclohexyl}methyl) imidazo[1,2-a] pyridine-5-carboxamide]
